Test results: ChEMBL document CHEMBL3046147, “Synthesis and Herbicidal Activity of 1-Arylalkyl-3-pyrrolin-2-one Derivatives” (J Pestic Sci, 2000)

Assays:
Sagittaria pygmaea = test: Herbicide activity against Sagittaria pygmaea under greenhouse condition compound treated at 0.5 leaf-stage measured after 14 to 20 days; format: functional
Echinochloa oryzicola [1] = test: Pre-emergence herbicide activity against Echinochloa oryzicola under greenhouse condition measured after 14 to 20 days; format: functional
Oryza sativa [2] = test: Phytotoxicity against two-leaf stage Oryza sativa cv. Nihonbare (rice) planted 3 cm depth measured after […]; format: organism-based; settings: in vivo
[3] = test system: Schoenoplectiella juncoides; test: Herbicide activity against Schoenoplectiella juncoides under greenhouse condition compound treated at emergence-stage measured after 14 to 20 days; format: functional
Oryza sativa [4] = test: Phytotoxicity against two-leaf stage Oryza sativa cv. Nihonbare (rice) planted 1 cm depth measured after […]; format: organism-based; settings: in vivo
Echinochloa oryzicola [5] = test: Herbicide activity against Echinochloa oryzicola under greenhouse condition compound treated at 2 leaf-stage measured after 14 to 20 days; format: functional

CC1=C(c2ccccc2)C(=O)N(C(C)(C)c2nc3ccccc3o2)C1 gave an MED (Sagittaria pygmaea) of 10 g/acre, an MED (Echinochloa oryzicola [1]) of 0.625 g/acre and an MTD (Oryza sativa [2]) of 20 g/acre. The MED [3] was 2.5 g/acre, the MTD (Oryza sativa [4]) was 5 g/acre and the MED (Echinochloa oryzicola [5]) was 5 g/acre.
CC1=C(c2ccccc2)C(=O)N(C(C)(C)c2ccc(Cl)s2)C1 gave an MED (Sagittaria pygmaea) of 80 g/acre, an MED (Echinochloa oryzicola [1]) of 0.625 g/acre and an MTD (Oryza sativa [2]) of 20 g/acre. It also gave an MED [3] of 10 g/acre, an MTD (Oryza sativa [4]) of 10 g/acre and an MED (Echinochloa oryzicola [5]) of 10 g/acre.
